In ChEMBL document CHEMBL1201862, “PubChem BioAssay data set” (2004):
Active and inactive are the calls of the source.

How the values were obtained:
[1] = cells
[2] = HEp-2 cell cytotoxicity, dose response, cytotoxicity control for RSV inhibitor project, HTS (AID 2410); format: functional; details: human respiratory syncytial virus
[3] = ADAM10 protease inhibitors, dose response, selectivity assay for ADAM17 exosite inhibitor project, biochemical, FRET peptide substrate, recombinant human ADAM10 (AID 743259);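 further: ADAM10 enzyme cleaving a FRET peptide substrate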
[4] = target: Disintegrin and metalloproteinase domain-containing protein 17 (Homo sapiens, UniProt P78536); experiment: exosite inhibitors of ADAM17, dose response, biochemical (AID 743260)
[5] = target: Prothrombin (Homo sapiens, UniProt P00734); experiment: Thrombin 1536 HTS Dose Response Confirmation. [Related pubchem assays: 1046 (Thrombin 1536 HTS; hits were confirmed in this assay)]; format: functional
[6] = target: T1, Heat shock factor protein 1 (Mus musculus, UniProt P38532); experiment: inhibition of MG132-induced HSE-luciferase signal, confirmation, cell-based, NIH3T3, luminescence, dose retest (AID 2382); format: functional;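 further: NIH3T3 fibroblasts with HSF1-driven luciferase reporter stressed by proteasome inhibitor MG132; luminescence from HSF1-driven luciferase expression after 8 hours of MG132 stress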
T1 sequence (P38532 whole entry): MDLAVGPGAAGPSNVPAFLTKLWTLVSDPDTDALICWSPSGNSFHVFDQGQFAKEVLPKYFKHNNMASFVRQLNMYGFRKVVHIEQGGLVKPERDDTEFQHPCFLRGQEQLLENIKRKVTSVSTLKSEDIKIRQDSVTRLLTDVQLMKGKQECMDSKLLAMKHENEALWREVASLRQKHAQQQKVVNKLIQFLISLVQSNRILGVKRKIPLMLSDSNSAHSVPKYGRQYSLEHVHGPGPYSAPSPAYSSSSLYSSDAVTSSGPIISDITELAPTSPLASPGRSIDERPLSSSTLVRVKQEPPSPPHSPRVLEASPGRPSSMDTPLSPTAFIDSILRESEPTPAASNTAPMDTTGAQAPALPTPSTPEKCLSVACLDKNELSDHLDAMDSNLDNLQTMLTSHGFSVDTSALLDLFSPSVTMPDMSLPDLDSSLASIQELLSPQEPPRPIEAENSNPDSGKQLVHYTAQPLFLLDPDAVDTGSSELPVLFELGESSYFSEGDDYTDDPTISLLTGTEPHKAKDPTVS

[7] = LGR2 antagonists, dose response, cell-based, HEK293, CRE-luciferase reporter, cherry pick, set 2 (AID 743343); format: functional;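 further: transfected cells were stimulated with diluted bursicon conditioned medium after compound addition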
[8] = tested on: H9c2; experiment: cells; format: functional, cell-based; details: Rattus norvegicus, H9c2, Myocardium;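 further: confirmatory concentration-response retest of ultra-high-throughput screening hits for modulation of myocardial damage; cell death induced by hydrogen peroxide oxidative stress; compound pretreatment for 60 min then peroxide exposure for 2 h; potency is for protecting the cells against peroxide damage rather than for killing them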
[9] = A549 cell cytotoxicity, dose response, cytotoxicity control, plate reader, cherry-pick, antagonist series (AID 743412); format: functional, cell-based
[10] = MC4R antagonists, dose response, counter-screen for LGR2 antagonist project, cell-based, plate reader, cherry pick (AID 743444); format: functional;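 further: transfected HEK 293 cells stimulated with alpha-MSH peptide; potency of inhibitors of the alpha-MSH evoked signal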
[11] = Counterscreen for inhibitors of Trypanosoma brucei methionyl tRNA synthetase (MetRS): Luminescence-based cell-based high throughput dose response assay to identify compounds that are cytotoxic to Jurkat human T lymphocyte cells.; format: functional
[12] = target: T2, Methionyl-tRNA synthetase, putative (Trypanosoma brucei brucei, UniProt Q38C91); format: functional, Trypanosoma brucei brucei strain 927/4 GUTat10.1
T2 sequence (Q38C91 whole entry): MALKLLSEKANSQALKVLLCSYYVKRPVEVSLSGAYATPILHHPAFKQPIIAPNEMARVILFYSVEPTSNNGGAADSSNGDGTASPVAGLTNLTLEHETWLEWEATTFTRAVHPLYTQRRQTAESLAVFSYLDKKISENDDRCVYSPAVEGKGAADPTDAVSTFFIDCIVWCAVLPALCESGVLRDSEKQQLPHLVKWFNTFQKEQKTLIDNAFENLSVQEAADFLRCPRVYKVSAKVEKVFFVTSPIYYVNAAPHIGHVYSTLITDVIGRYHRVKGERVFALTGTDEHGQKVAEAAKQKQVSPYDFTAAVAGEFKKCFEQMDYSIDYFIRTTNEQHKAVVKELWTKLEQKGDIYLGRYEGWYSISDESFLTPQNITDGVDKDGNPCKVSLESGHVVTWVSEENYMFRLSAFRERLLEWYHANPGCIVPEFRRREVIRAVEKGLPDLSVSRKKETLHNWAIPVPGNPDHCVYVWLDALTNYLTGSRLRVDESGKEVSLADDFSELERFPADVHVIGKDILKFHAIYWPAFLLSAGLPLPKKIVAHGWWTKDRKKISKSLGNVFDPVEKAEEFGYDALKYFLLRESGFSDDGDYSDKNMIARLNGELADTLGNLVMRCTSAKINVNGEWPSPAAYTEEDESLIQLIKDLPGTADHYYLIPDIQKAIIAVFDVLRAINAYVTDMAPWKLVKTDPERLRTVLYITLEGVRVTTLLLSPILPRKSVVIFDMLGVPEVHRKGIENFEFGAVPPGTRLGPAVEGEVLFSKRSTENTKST

[13] = target: T2, Methionyl-tRNA synthetase, putative; format: functional, Trypanosoma brucei brucei strain 927/4 GUTat10.1; remark: listed apart in the source
[14] = target: T3, Short transient receptor potential channel 4 (Mus musculus, UniProt Q9QUQ5); experiment: mouse TRPC4 channel activators, dose response, cell-based, HEK293 TRPC4/mu-opioid, Fluo-4 calcium (AID 434937); format: functional
T3 sequence (Q9QUQ5 whole entry): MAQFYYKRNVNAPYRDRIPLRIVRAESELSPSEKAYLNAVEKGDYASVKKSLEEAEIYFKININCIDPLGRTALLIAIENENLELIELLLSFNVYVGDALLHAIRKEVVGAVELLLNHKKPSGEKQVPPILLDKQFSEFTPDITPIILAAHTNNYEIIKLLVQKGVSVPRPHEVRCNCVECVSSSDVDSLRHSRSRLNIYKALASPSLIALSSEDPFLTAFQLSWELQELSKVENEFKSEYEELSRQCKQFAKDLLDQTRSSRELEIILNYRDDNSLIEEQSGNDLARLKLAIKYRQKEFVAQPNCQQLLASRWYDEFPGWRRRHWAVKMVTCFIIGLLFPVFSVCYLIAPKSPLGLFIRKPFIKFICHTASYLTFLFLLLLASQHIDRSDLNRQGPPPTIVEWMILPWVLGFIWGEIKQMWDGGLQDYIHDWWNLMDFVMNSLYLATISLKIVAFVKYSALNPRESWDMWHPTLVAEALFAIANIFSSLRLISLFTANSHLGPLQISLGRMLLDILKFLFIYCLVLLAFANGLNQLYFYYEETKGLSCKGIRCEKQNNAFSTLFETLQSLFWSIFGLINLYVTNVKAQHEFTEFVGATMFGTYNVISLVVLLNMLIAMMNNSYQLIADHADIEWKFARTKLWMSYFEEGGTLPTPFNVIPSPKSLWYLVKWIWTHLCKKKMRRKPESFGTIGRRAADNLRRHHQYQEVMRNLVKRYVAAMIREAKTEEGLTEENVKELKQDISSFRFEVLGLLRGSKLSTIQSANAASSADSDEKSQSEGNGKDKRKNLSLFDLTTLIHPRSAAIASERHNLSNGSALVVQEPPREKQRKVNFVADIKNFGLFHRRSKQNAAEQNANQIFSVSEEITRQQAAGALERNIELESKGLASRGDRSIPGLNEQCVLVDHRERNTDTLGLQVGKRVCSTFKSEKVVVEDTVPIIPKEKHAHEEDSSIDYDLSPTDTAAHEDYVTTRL

[15] = target: Delta-type opioid receptor (Homo sapiens, UniProt P41143); experiment: Counterscreen for agonists of heterodimerization of the mu 1 (OPRM1) and delta 1 (OPRD1) opioid receptors: Luminescence-based cell-based high throughput dose response assay to identify agonists of OPRD1 homodimerization. [Related pubchem assays (depositor defined):AID504326, AID504355, AID504692, AID504904, AID504905]; format: functional
[16] = target: Mu-type opioid receptor (Homo sapiens, UniProt P35372); experiment: Counterscreen for agonists of heterodimerization of the mu 1 (OPRM1) and delta 1 (OPRD1) opioid receptors: Luminescence-based cell-based high throughput dose response assay to identify agonists of OPRM1 homodimerization.; format: functional;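 further: U2OS cells expressing OPRM1 and beta-arrestin as split beta-galactosidase partners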
[17] = target: 5-hydroxytryptamine receptor 5A (Homo sapiens, UniProt P47898); experiment: Counterscreen for agonists of OPRM1-OPRD1 heterodimerization: luminescence-based cell-based high throughput dose response assay to identify agonists of 5-hydroxytryptamine (serotonin) 5A receptor (HTR5A). [Related pubchem assays (depositor defined):AID504326, AID504355, AID504692, AID504904, AID504905]; format: functional
[18] = target: T4, Low molecular weight phosphotyrosine protein phosphatase (Homo sapiens, UniProt P24666); format: functional; details: read-out: IC50_Mean;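 further: Dose-response confirmation assay measuring inhibition of LMPTP enzyme activity by fluorescence intensity read-out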
T4 sequence (P24666 whole entry): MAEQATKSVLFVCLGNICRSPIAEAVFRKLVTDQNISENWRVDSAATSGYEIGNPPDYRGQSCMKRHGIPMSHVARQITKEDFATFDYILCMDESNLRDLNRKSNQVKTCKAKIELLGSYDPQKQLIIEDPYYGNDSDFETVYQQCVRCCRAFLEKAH

[19] = THP-1 cell cytotoxicity, dose response, cytotoxicity control for Vif-APOBEC3G degradation inhibitor project, THP-1 cells (AID 1117359); format: functional; details: Human immunodeficiency virus 1, THP-1
[20] = cytotoxicity in OVCAR8 ovarian cancer cells, dose response, PAX8 project, cell-based, plate reader, dry powder samples (AID 743197); format: functional; details: OVCAR-8
[21] = target: Paired box protein Pax-8 (Homo sapiens, UniProt Q06710); experiment: inhibitors of PAX8-driven TPO luciferase reporter, dose response, RMG-I cells, cherry-pick (AID 687027); format: functional, cell-based;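 further: luciferase reporter driven by Pax8 target thyroperoxidase promoter measured by SteadyGlo luminescence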
[22] = NIH:OVCAR-3 ovarian cancer cell cytotoxicity, dose response, PAX8 inhibitor project, plate reader, dry powder samples (AID 743044); format: functional, cell-based
[23] = target: Induced myeloid leukemia cell differentiation protein Mcl-1 (Homo sapiens, UniProt Q07820); format: functional
[24] = P. falciparum Dd2 growth inhibitors, dose response, SYBR Green, cherry-picked samples (AID 1159567); format: functional, cell-based
[25] = P. falciparum 3D7-ScDHODH growth inhibitors, dose response, SYBR Green, dry powder samples (AID 1159570); format: functional, cell-based;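 further: parasite growth measured after 72 hours of compound exposure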
[26] = HepG2 cell cytotoxicity, dose response, cytotoxicity control, plate reader, dry powder samples (AID 1159569); format: functional, cell-based;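 further: inhibitor potency with signal falling toward the positive control level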
[27] = P. falciparum Dd2 growth inhibitors, dose response, SYBR Green, dry powder samples (AID 1159566); format: functional, cell-based;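 further: potency for growth inhibition with lower SYBR green DNA signal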
[28] = P. falciparum ATP4 D1247Y mutant growth inhibitors, dose response, NITD609-resistant line, SYBR Green, dry powder (AID 1159571); format: functional, cell-based;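 further: parasites synchronized at ring stage by sorbitol before testing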

Disintegrin and metalloproteinase domain-containing protein 17, sequence (P78536 whole entry, the tested form may be a part): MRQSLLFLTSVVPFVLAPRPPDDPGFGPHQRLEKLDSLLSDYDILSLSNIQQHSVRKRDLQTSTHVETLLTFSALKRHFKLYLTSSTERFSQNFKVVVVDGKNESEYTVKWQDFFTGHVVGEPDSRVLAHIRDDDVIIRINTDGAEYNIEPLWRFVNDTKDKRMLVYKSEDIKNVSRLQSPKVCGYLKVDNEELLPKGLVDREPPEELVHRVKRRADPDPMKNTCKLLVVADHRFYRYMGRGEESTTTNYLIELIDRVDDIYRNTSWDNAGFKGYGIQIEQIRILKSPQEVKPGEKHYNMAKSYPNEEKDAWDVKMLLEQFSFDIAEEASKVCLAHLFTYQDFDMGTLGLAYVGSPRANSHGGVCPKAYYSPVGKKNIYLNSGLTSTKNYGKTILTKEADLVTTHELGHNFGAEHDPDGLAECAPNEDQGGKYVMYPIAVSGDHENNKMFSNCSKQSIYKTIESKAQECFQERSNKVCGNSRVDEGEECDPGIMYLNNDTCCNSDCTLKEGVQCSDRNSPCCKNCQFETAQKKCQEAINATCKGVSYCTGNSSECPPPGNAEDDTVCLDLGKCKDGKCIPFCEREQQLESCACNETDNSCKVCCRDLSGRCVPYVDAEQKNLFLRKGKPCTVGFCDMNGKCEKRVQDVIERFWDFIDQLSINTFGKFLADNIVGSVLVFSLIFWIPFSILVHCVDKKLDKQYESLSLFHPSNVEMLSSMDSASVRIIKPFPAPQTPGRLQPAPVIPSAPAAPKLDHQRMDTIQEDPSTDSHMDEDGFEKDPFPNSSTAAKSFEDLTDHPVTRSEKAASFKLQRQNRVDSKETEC
Paired box protein Pax-8, sequence (Q06710 whole entry): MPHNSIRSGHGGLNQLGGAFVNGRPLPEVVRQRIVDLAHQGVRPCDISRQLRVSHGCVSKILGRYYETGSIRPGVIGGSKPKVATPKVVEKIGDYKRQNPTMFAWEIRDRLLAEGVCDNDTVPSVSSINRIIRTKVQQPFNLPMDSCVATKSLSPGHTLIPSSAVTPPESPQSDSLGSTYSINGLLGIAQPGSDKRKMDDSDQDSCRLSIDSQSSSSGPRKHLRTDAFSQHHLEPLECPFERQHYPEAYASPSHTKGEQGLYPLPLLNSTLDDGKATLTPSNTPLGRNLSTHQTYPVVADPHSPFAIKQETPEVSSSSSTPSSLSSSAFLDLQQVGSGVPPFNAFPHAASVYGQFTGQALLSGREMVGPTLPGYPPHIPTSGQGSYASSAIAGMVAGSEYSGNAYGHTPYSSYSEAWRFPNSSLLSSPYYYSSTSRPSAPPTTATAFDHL
Mu-type opioid receptor, sequence (P35372 whole entry): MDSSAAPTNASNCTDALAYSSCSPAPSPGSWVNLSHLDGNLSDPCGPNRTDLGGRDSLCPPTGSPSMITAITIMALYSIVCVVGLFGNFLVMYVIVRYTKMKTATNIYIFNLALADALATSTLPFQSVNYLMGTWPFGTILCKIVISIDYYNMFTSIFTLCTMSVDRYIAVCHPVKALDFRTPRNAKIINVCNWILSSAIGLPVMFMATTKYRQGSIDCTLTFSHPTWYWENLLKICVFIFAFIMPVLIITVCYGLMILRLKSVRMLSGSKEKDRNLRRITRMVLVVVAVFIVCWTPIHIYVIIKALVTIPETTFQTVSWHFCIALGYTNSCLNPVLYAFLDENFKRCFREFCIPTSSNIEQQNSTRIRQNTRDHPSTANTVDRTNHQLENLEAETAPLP
5-hydroxytryptamine receptor 5A, sequence (P47898 whole entry): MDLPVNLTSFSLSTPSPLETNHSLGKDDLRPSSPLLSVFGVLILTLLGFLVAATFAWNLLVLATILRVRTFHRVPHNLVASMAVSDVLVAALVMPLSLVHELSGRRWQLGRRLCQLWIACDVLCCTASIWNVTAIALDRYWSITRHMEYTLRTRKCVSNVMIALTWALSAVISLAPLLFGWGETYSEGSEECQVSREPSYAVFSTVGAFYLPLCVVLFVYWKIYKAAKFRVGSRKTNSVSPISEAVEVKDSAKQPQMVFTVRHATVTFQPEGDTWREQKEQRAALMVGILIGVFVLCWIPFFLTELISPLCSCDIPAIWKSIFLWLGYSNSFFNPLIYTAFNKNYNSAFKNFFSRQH
Induced myeloid leukemia cell differentiation protein Mcl-1, sequence (Q07820 whole entry): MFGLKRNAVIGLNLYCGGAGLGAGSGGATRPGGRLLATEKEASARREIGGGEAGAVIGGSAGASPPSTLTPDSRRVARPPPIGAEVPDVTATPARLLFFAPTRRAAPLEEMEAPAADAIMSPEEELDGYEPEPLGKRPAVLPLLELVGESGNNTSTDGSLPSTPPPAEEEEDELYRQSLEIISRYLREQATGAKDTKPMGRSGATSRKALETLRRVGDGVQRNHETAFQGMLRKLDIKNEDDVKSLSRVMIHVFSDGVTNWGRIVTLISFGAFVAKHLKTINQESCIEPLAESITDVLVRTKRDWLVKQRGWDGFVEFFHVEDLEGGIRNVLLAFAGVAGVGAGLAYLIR
Delta-type opioid receptor, sequence (P41143 whole entry): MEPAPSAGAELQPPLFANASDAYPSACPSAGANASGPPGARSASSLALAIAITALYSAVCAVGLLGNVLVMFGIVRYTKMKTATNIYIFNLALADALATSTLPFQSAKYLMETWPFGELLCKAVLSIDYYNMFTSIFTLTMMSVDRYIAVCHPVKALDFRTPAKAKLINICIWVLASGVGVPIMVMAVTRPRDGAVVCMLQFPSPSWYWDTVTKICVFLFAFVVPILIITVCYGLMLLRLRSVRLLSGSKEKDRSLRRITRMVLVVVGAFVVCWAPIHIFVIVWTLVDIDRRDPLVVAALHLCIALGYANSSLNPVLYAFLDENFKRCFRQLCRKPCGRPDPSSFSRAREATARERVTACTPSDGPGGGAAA

COC(=O)c1ccc(Cn2c(CN3CCOCC3)nc3ccccc3c2=O)o1
IC50 [1]: 17.4 µM (active)

Cc1ccc(S(=O)(=O)N2CCN(CCO)CC2)cc1-c1nnc2c3ccccc3c(C)nn12
IC50 [1]: > 50 µM (active)

COc1ccccc1-n1c(C)cc(/C=C2\C(=N)N3N=C(CC(=O)N4CCOCC4)SC3=NC2=O)c1C
CC50 [2]: 38.3 µM (active)
IC50 [1]: 24.1 µM (active)

O=C(COC(=O)c1cccc(NS(=O)(=O)/C=C/c2ccccc2)c1)Nc1ccccc1OC(F)F
IC50 [3]: 36 µM (inactive)
IC50 [4]: > 69.5 µM (inactive)

Cc1nn(C)cc1CN1CCC(CO)(CCOc2ccccc2)CC1
IC50 [5]: > 50 µM (not active)

Cc1csc(-c2cnn(-c3ccccc3)c2NC(=O)c2ccc(C(F)(F)F)cc2)n1
IC50 [3]: 24.7 µM (inactive)
IC50 [4]: > 69.5 µM (inactive)

O=C(COc1ccccc1C(=O)O)Nc1ccc(SC(F)F)cc1
IC50 [5]: > 50 µM (not active)
EC50 [6]: > 195 µM (not active)

Cc1ccc(C)c(S(=O)(=O)N(C(=O)c2ccncc2)c2ccc(OC(=O)c3ccncc3)cc2)c1
AC50 [7]: 4.05 µM (active)
IC50 [8]: > 79 µM (inactive)
AC50 [9]: > 52 µM (inactive)
AC50 [10]: 1.9 µM (active)

Cc1cc(C)c2c(-n3cccc3)c(C(=O)NNS(=O)(=O)c3ccc(Cl)cc3)sc2n1
CC50 [2]: 37.1 µM (active)
IC50 [1]: 40.2 µM (active)

CC(C)Oc1ccc(N2CC(C(=O)NC3=NCCS3)CC2=O)cc1 (stereo not given)
IC50 [5]: > 50 µM (not active)

COC(=O)c1sc(-c2ccc(Cl)cc2)cc1NC(=O)CSCC(=O)O
IC50 [11]: 83.3 µM (inactive)
IC50 [12]: 22.5 µM (inactive)
IC50 [13]: 18.2 µM (inactive)

Cc1cccc2cc(C(c3nnnn3Cc3ccccc3)N3CCN(C)CC3)c(O)nc12 (stereo not given)
EC50 [14]: 1.88 µM (active)
EC50 [15]: > 92.5 µM (inactive)
EC50 [16]: > 92.5 µM (inactive)
EC50 [17]: > 92.5 µM (inactive)

O=c1cc(-c2ccsc2)oc2cc(-c3ccc4c(c3)OCO4)ccc12
IC50 [18]: 6.19 µM (active)

O=C(Nc1nc(-c2ccco2)c(-c2ccco2)s1)c1ccc(F)cc1F
CC50 [19]: > 40 µM (active)

Cc1nn(C)cc1CNC(=O)C1C2CCC(C2)C1C(=O)O (stereo not given)
CC50 [19]: > 40 µM (active)

CCOC(=O)/C=C1\CN(Cc2ccc(OC)cc2)S(=O)(=O)c2ccccc21
IC50 [3]: > 69.5 µM (inactive)
IC50 [4]: > 69.5 µM (inactive)

C[C@@H]1CN([C@H](C)CO)S(=O)(=O)c2ccc(C#CC3CCCC3)cc2O[C@H]1CN(C)Cc1cccnc1
AC50 [20]: 50.2 µM (active)
AC50 [21]: 12.5 µM (active)
AC50 [22]: 26.2 µM (active)

COc1ccccc1C(=O)Nc1ccc2c(c1)C(=O)N(C)[C@@H]1CC[C@@H](CC(=O)NCc3ccc(Cl)c(Cl)c3)O[C@H]1CO2
AC50 [20]: 55.9 µM (active)
AC50 [21]: 1.57 µM (active)
AC50 [22]: 40.8 µM (active)

O=C(CN1CCN(c2nc(-c3ccccc3)cs2)CC1)Nc1ccc(Cl)c(Cl)c1
IC50 [3]: 37.8 µM (inactive)
IC50 [4]: > 69.6 µM (inactive)

CC(C)c1ccc(S(=O)(=O)/N=C2/C=CC(=O)c3ccccc32)cc1
CC50 [19]: 18.2 µM (active)
IC50 [23]: 3.28 µM (active)

COCc1cn([C@@H]2C[C@@H]3O[C@H](CO)CC[C@@H]3O[C@@H]2CCc2ccc(-c3ccc(OC)cc3)cc2)nn1
AC50 [24]: 0.782 µM (active)
AC50 [25]: 0.424 µM (active)
AC50 [26]: 37.4 µM (active)
AC50 [27]: 0.426 µM (active)
AC50 [28]: 0.571 µM (active)

COc1cccc(C#Cc2ccc([C@H]3[C@@H](CO)N4C(=O)CN(C(=O)c5ccccc5)C[C@H]34)cc2)c1
AC50 [24]: 0.791 µM (active)
AC50 [25]: 1.03 µM (active)
AC50 [26]: 22.3 µM (active)
AC50 [27]: 0.398 µM (active)
AC50 [28]: 0.53 µM (active)
